Results from patent US4275065A, “Modulating the immune response with 2-substituted-3-hydroxythiazolo[2,3-b]b e” (American Home Products Corporation, priority 1980, dated 1981).

Tests used:
[1] = system: autoimmune disease (systemic lupus erythematosus); assay: autoimmune disease (systemic lupus erythematosus), immunoglobulin determinations, female NZB/W mice; type: in vivo, female NZB/W F1 mice; settings: A 100 mg/kg, levamisole 25 mg/kg, i.p. twice weekly
Protocol: (§1) The effect of the compounds of the invention on the development and progress of autoimmune disease (systemic lupus erythematosus) in the New Zealand F1 hydrid mouse (NZB×NZW) is evaluated. NZB/W F1 mice are divided into two groups according to sex. […] IgG, IgM and antinuclear antibody determinations are made on pooled samples of serum obtained by capillary bleedings of the suborbital sinus at approximately monthly intervals. The compounds of the invention are suspended in a solution of physiological saline with 0.16% CMC. All dosing is twice weekly intraperitonially. […] Immunoglobulin values from serum samples are compared with the baseline (pretreatment) for each group.

[2] = system: adjuvant arthritis (left paw edema); assay: adjuvant arthritis test, prophylactic peroral administration; type: in vivo, male Lewis strain rats; settings: prophylactic p.o.
[3] = system: established adjuvant arthritis (left paw edema); assay: established adjuvant arthritis, therapeutic peroral administration; type: in vivo, male Lewis strain rats; settings: therapeutic p.o., * = p < 0.05
thymus gland = assay: effect on the thymus gland (thymus weight); type: in vivo, BDF1 mice
Protocol: The effect of the compounds of the invention on the thymus gland is measured. BDF1 mice of 18-20 gms. weight are dosed at 150 mg/kg. with 6-chloro-2-phenylthiazolo[2,3-b]benzothiazolo-3(2H)-one mesoionic didehydro derivative for eight consecutive days. The mice are sacrificed on the ninth day, the thymus glands excised and weighed. The excised thymus glands averaged […]. as compared to […]. for the control group. […] The weight loss is also correlated to dose, and the results are as follows:
Using the same technique, the following compounds of the invention were tested: 6-chloro-2-(p-chlorophenyl)thiazolo[2,3-b]benzothiazol-3(2H)-one mesoionic didehydro derivative (A), 2-phenyl-5,6,7,8-tetrahydrothiazolo[2,3-b]benzothiazol-3(2H)-one mesoionic didehydro derivative (B), 2-phenylthiazolo[2,3-b]-benzothiazol-3(2H)-one mesoionic didehydro derivative (C),6-chloro-2-trifluoroacetylthiazolo[2,3-b]benzothiazol-3(2H)-one mesoionic didehydro derivative (D), 6-chloro-3-hydroxy-2-phenylthiazolo[2,3-b]benzothiazolium bromide (E), 7-ethoxy-3-hydroxy-2-phenylthiazolo[2,3-b]benzothiazolium bromide (F), 3-hydroxy-2-phenylthiazolo[2,3-b]benzothiazolium bromide (G), and 3-hydroxy-2-phenyl-5,6,7,8-tetrahydrothiazolo[2,3-b]benzothiazolium bromide (H).

[4] = system: antibody-secreting plaque-forming splenocytes (IgG and IgM); assay: Cunningham modification of the Jerne assay (hemolytic plaque technique), IgM and IgG plaques per spleen; type: in vivo, CDF1 (Balb/c × DBA/2) mice; settings: 100 mg/kg
Protocol: In this example, the compounds of the invention are tested for their effect on antibody-secreting plaque-forming splenocytes (IgG and IgM) in the Cunningham modification of the Jerne assay. This technique is able to detect, in a quantitative manner, antibody producing cells in response to antigen stimulus in the host mouse. For study of […] immune response, sheep erythrocytes (SRBC) are used (as in the present Example), while for humoral immune response, SRBC coupled with pneumococcal polysaccharide is used.
CDF1 (Balb/c × DBA/2) mice are immunized with 0.1 ml. of 10^8 sheep erythrocytes (SRBC) intraperitonially 4-5 days before the assay. The mice are separated into groups, with one group serving as a control and all other groups receiving compounds of the invention. The treated mice are dosed with drug on day one. […] The spleens of the sacrificed mice are excised and washed several times in RPMI 1640 with 10% fetal bovine serum. 100 λ of spleen cells are mixed with a drop of guinea pig complement, four drops of RPMI 1640 and a drop of 25% SRBC in a microtiter plate well and then pipetted into a Cunningham chamber. On day four, for IgM determinations, the chambers are incubated for 30 minutes at 37° C. Antibody, released by the small proportion of active cells, attaches to the surrounding erythrocytes which are lysed by complement leaving a small plaque up to 0.5 mm. in diameter. Since only cells releasing IgM antibody form plaques directly, a "developing" serum must be added to be able to form and view IgG plaques. Thus fifth or sixth day cultured spleen cells are further treated with rabbit antimouse IgG and then incubated for 45 minutes. Both IgM and IgG plaques are counted under a stereomicroscope.
In Table 1 are given the IgM and IgG plaque counts per spleen for mice treated with 6-chloro-2-phenylthiazolo[2,3-b]benzothiazol-3(2H)-one mesoionic didehydro derivative and for the controls:
The assay is repeated using the following compounds of the invention: 2-phenylthiazolo[2,3-b]benzothiazol-3(2H)-one mesoionic didehydro derivative (A), 6-chloro-2-(p-chlorophenyl)-thiazolo[2,3-b]benzothiazol-3(2H)-one mesoionic didehydro derivative (B) and 6-chloro-2-phenylthiazolo[2,3-b]benzothiazol-3(2H)-one mesoionic didehydro derivative (C).

[5] = system: delayed hypersensitivity reaction; assay: guinea pig delayed hypersensitivity assay (PPD); type: in vivo, Male Hartley strain guinea pigs; settings: 50 mg/kg orally, read 24 hours after challenge, * = p < 0.05
[6] = system: autoimmune disease (systemic lupus erythematosus); assay: autoimmune disease (systemic lupus erythematosus), immunoglobulin determinations, male NZB/W mice; type: in vivo, male NZB/W F1 mice; settings: A 100 mg/kg, levamisole 25 mg/kg, i.p. twice weekly
Protocol: as §1

[7] = system: murine Lewis lung carcinoma; assay: metastatic spread of murine Lewis lung carcinoma implanted subcutaneously; type: in vivo
Protocol: The ability of the compounds of the invention to influence the growth and metastatic spread of murine Lewis lung carcinoma implanted subcutaneously,is evaluated.
The procedures employed for stock tumor maintenance and transfer, as well as for drug evaluation on the primary tumor, are those found in Cancer Chemotherapy Reports, Vol. 3, No. 2, September 1972, Protocol 1.400. The measurements of metastic spread are made by counting tumor foci on the excised lung under an illuminated magnifying lens or a dissecting microscope, after employment of the Wexler india ink technique (Hilda Wexler, "Accurate Identification of Experimental Pulmonary Metastases", J. Nat. Can. Inst., Volume 36, No. 4, April 1966, pp. 641-643) to accurately identify and count lung metasteses.

[8] = 150 mg/kg, eight days, in words

[O-]c1c(-c2ccccc2)sc2sc3ccc(Cl)cc3[n+]12 [Example 3, 6-Chloro-2-phenylthiazolo[2,3-b]benzothiazol-3(2H)-one mesoionic didehydro derivative]
ANA (antinuclear antibody), Highest Dilution Positive ([1]; 47 Days): neg. | IgG level ([1]; 47 Days): 234 mg./100 ml. | IgM level ([1]; 47 Days): 49 mg./100 ml. | ANA (antinuclear antibody), Highest Dilution Positive ([1]; 76 Days): neg. | IgG level ([1]; 76 Days): 220 mg./100 ml. | IgM level ([1]; 76 Days): 54 mg./100 ml. | ANA (antinuclear antibody), Highest Dilution Positive ([1]; 111 Days): neg. | IgG level ([1]; 111 Days): 496 mg./100 ml. | IgM level ([1]; 111 Days): 148 mg./100 ml. | ANA (antinuclear antibody), Highest Dilution Positive ([1]; 154 Days): neg. | IgG level ([1]; 154 Days): 420 mg./100 ml. | IgM level ([1]; 154 Days): 108 mg./100 ml. | IgG Total Change From Baseline [1]: -40 mg./100 ml. | IgM Total Change From Baseline [1]: +44 mg./100 ml. | IgG level ([1]; Pretreatment): 460 mg./100 ml. | IgM level ([1]; Pretreatment): 64 mg./100 ml. | Mean % Inhibition of Left Paw Edema ([2]; 10 mg/kg): 32% | Mean % Inhibition of Left Paw Edema ([2]; 25 mg/kg, * = p < 0.05?): 41% | Mean % Inhibition of Left Paw Edema ([2]; 50 mg/kg, * = p < 0.05?): 63% | Mean % Inhibition of Left Paw Edema ([3]; 4th day of dosing, 12.5 mg/kg): 94% | Mean % Inhibition of Left Paw Edema ([3]; 4th day of dosing, 50 mg/kg): 67% | Mean % Inhibition of Left Paw Edema ([3]; 7th day of dosing, 12.5 mg/kg): 66% | Mean % Inhibition of Left Paw Edema ([3]; 7th day of dosing, 50 mg/kg): 58% | Thymus weight (thymus gland; 12.5 mg/kg): 55.3 mg | Thymus weight (thymus gland; 50 mg/kg): 46 mg | Thymus weight (thymus gland; 100 mg/kg): 11.8 mg | Thymus weight (thymus gland; 150 mg/kg, eight consecutive days, ninth day): 21.8 mg | Histopathological examination of the treated thymus glands (thymus gland; [8]): weight loss to be due solely to the depletion of lymphocytes | size of the cervical, axillary, trachial and inguinal lymph nodes (thymus gland; [8]): some reduction in the size | Thymus weight (thymus gland; 200 mg/kg): 20.5 mg | recovery of thymus weight and histopathological status (thymus gland; after resting for three weeks, in words): return to normal weight and histopathological status | IgG plaques, mean (total number of plaques per spleen) ([4]; Day 4): 37,087 plaques per spleen | IgM plaques, mean (total number of plaques per spleen) ([4]; Day 4): 63,993 plaques per spleen | IgG plaques, mean (total number of plaques per spleen) ([4]; Day 6): 152,745 plaques per spleen | IgM plaques, mean (total number of plaques per spleen) ([4]; Day 6): 39,679 plaques per spleen | Mean % Inhibition of Paw Edema ([5]; 6 hours after challenge): 41% | Mean % Inhibition of Paw Edema ([5]; 24 hours before challenge): 43% | ANA (antinuclear antibody), Highest Dilution Positive ([6]; 47 Days): neg. | IgG level ([6]; 47 Days): 234 mg./100 ml. | IgM level ([6]; 47 Days): 48 mg./100 ml. | ANA (antinuclear antibody), Highest Dilution Positive ([6]; 76 Days): neg. | IgG level ([6]; 76 Days): 240 mg./100 ml. | IgM level ([6]; 76 Days): 49 mg./100 ml. | ANA (antinuclear antibody), Highest Dilution Positive ([6]; 111 Days): neg. | IgG level ([6]; 111 Days): 240 mg./100 ml. | IgM level ([6]; 111 Days): 80 mg./100 ml. | ANA (antinuclear antibody), Highest Dilution Positive ([6]; 154 Days): neg. | IgG level ([6]; 154 Days): 324 mg./100 ml. | IgM level ([6]; 154 Days): 96 mg./100 ml. | IgG Total Change From Baseline [6]: -126 mg./100 ml. | IgM Total Change From Baseline [6]: +52.5 mg./100 ml. | IgG level ([6]; Pretreatment): 450 mg./100 ml. | IgM level ([6]; Pretreatment): 43.5 mg./100 ml. | Average Number of Metastases ([7]; 25 mg/kg): 10.8 | Average Number of Metastases ([7]; 50 mg/kg): 15.3 | Average Number of Metastases ([7]; 100 mg/kg): 38.4 | Average Number of Metastases ([7]; 150 mg/kg): 81.3 | Average Number of Metastases ([7]; 300 mg/kg): 99.1
